From ChEMBL document CHEMBL4483862, “Open-source discovery of chemical leads for next-generation chemoprotective antimalarials” (2018)

Tested on: Plasmodium berghei
Test: Luciferase/luciferin-expressing antifolate-resistant parasites were used to infect a culture of HepG2 cells that were pre-incubated with compounds. Infected hepatocytes emit light due to the luciferase reaction. Assay results are presented as the percent inhibition of light emission compared to control. […]
Assay type: functional
Details: sporozoite; for IC90: read-out: LUCIFERASE INFECTION ASSAY - IC90

Compound	IC90	further results
COc1ccc(C(N)=O)c(OCC(=O)c2cc(C)n(Cc3ccccc3)c2C)c1	9.51 µM	IC50 (HEPG2TOX_HILL_SLOPE 1.79, HEPG2TOX_R_SQUARED 0.962, PBLUC_HILL_SLOPE 4.42, PBLUC_R_SQUARED 0.333, read-out: LUCIFERASE INFECTION ASSAY - IC50): 5.78 µM
Cc1ccc(-c2nc3cc(Br)cnc3nc2-c2ccc(C)cc2)cc1	6.85 µM	IC50 (HEPG2TOX_HILL_SLOPE 1.79, HEPG2TOX_R_SQUARED 0.907, PBLUC_HILL_SLOPE 4.08, PBLUC_R_SQUARED 0.409, read-out: LUCIFERASE INFECTION ASSAY - IC50): 4 µM
NC(=S)N/N=C/c1ncc(C(F)(F)F)cc1Cl	4.07 µM	IC50 (HEPG2TOX_HILL_SLOPE 1.78, HEPG2TOX_R_SQUARED 0.942, PBLUC_HILL_SLOPE 40.1, PBLUC_R_SQUARED 0.426, read-out: LUCIFERASE INFECTION ASSAY - IC50): 3.85 µM
Cc1ccnc(NC(c2ccccn2)c2ccc3ccc(C)nc3c2O)c1 (configuration not stated)	> 9.26 µM	IC50 (HEPG2TOX_HILL_SLOPE 1.81, HEPG2TOX_R_SQUARED 0.956, PBLUC_HILL_SLOPE 14.5, PBLUC_R_SQUARED 0.453, read-out: LUCIFERASE INFECTION ASSAY - IC50): 8.04 µM
CC(C)Cc1ccc(C(C)NC(=O)c2ccc(CNC(N)=O)cc2)cc1 (configuration not stated)	> 10 µM	IC50 (HEPG2TOX_HILL_SLOPE 1.82, HEPG2TOX_R_SQUARED 0.295, read-out: LUCIFERASE INFECTION ASSAY - IC50): > 10 µM
COc1ccc(C(=O)C(/C=N/N)=N/Nc2ccc(C(F)(F)F)cc2)cc1	8.8 µM	IC50 (HEPG2TOX_HILL_SLOPE 1.78, HEPG2TOX_R_SQUARED 0.947, PBLUC_HILL_SLOPE 3.28, PBLUC_R_SQUARED 0.359, read-out: LUCIFERASE INFECTION ASSAY - IC50): 4.5 µM
CN1C(=O)N(CCCc2ccncc2)C(=O)C12CCN(Cc1ccc(N3CCCC3)cc1)CC2	2.98 µM	IC50 (HEPG2TOX_HILL_SLOPE 1.82, HEPG2TOX_R_SQUARED 0.908, PBLUC_HILL_SLOPE 12.5, PBLUC_R_SQUARED 0.321, read-out: LUCIFERASE INFECTION ASSAY - IC50): 2.5 µM
CC1S/C(=C\c2nc3ccccc3s2)NC1=O (configuration not stated)	> 10 µM	IC50 (HEPG2TOX_HILL_SLOPE 1.83, HEPG2TOX_R_SQUARED 0.983, PBLUC_HILL_SLOPE 1.76, PBLUC_R_SQUARED 0.572, read-out: LUCIFERASE INFECTION ASSAY - IC50): 3.43 µM
CC(=O)c1cccc(-c2cnc3ccc(-c4cccnc4)nn23)c1	4.84 µM	IC50 (HEPG2TOX_HILL_SLOPE 1.81, HEPG2TOX_R_SQUARED 0.991, PBLUC_HILL_SLOPE 1.06, PBLUC_R_SQUARED 0.743, read-out: LUCIFERASE INFECTION ASSAY - IC50): 0.606 µM
Cn1c(=O)[nH]c(=O)c2ccc(C(=O)/N=c3/sccn3Cc3ccc(Cl)cc3Cl)nc21	5.16 µM	IC50 (HEPG2TOX_HILL_SLOPE 1.78, HEPG2TOX_R_SQUARED 0.947, PBLUC_HILL_SLOPE 2.11, PBLUC_R_SQUARED 0.878, read-out: LUCIFERASE INFECTION ASSAY - IC50): 1.82 µM
O=C(O)C(CCO)Sc1nnc(Nc2ccc(Oc3ccccc3)cc2)s1 (configuration not stated)	> 10 µM	IC50 (HEPG2TOX_HILL_SLOPE 1.82, HEPG2TOX_R_SQUARED 0.816, PBLUC_HILL_SLOPE 10.1, PBLUC_R_SQUARED 0.331, read-out: LUCIFERASE INFECTION ASSAY - IC50): 9.1 µM
O=C(Nc1cc(Cl)cc(Cl)c1)c1cc(Br)ccc1O	1.35 µM	IC50 (HEPG2TOX_HILL_SLOPE 1.83, HEPG2TOX_R_SQUARED 0.974, PBLUC_HILL_SLOPE 1.75, PBLUC_R_SQUARED 0.827, read-out: LUCIFERASE INFECTION ASSAY - IC50): 0.385 µM
CCCCNC(=O)c1c(NC(=O)C(C)Oc2ccccc2)nc2ccccn12 (configuration not stated)	> 8.67 µM	IC50 (HEPG2TOX_HILL_SLOPE 1.79, HEPG2TOX_R_SQUARED 0.135, PBLUC_HILL_SLOPE 4.23, PBLUC_R_SQUARED 0.241, read-out: LUCIFERASE INFECTION ASSAY - IC50): 6.54 µM
COc1cccc(/C=c2\s/c(=C\C(=O)C(C)(C)C)n(C)c2=O)c1OC(C)C	> 10 µM	IC50 (HEPG2TOX_HILL_SLOPE 1.82, HEPG2TOX_R_SQUARED 0.577, PBLUC_HILL_SLOPE 1.88, PBLUC_R_SQUARED 0.501, read-out: LUCIFERASE INFECTION ASSAY - IC50): 8.5 µM
O=C(C1CCC1)N1CCN(Cc2ccc(-c3ccc(Cl)cc3)s2)CC1	> 10 µM	IC50 (HEPG2TOX_HILL_SLOPE 1.83, HEPG2TOX_R_SQUARED 0.819, PBLUC_HILL_SLOPE 1.76, PBLUC_R_SQUARED 0.701, read-out: LUCIFERASE INFECTION ASSAY - IC50): 4.2 µM
Cc1nn(C)c(Cl)c1/C=N/Nc1ccc([N+](=O)[O-])cc1S(=O)(=O)Nc1ccc(Cl)cc1	> 10 µM	IC50 (HEPG2TOX_HILL_SLOPE 1.82, HEPG2TOX_R_SQUARED 0.852, PBLUC_HILL_SLOPE 13.6, PBLUC_R_SQUARED 0.455, read-out: LUCIFERASE INFECTION ASSAY - IC50): 9.47 µM

Compound	IC90	further results
CN(C)c1ccc(-c2cnc3ccc(NCc4ccc5c(c4)OCO5)nn23)cc1	3.57 µM	IC50 (HEPG2TOX_HILL_SLOPE 1.81, HEPG2TOX_R_SQUARED 0.969, PBLUC_HILL_SLOPE 2.01, PBLUC_R_SQUARED 0.65, read-out: LUCIFERASE INFECTION ASSAY - IC50): 1.2 µM
CC1(C(=O)NC(=S)NNc2nc3ccccc3[nH]2)CC1(Cl)Cl (configuration not stated)	> 10 µM	IC50 (HEPG2TOX_HILL_SLOPE 1.8, HEPG2TOX_R_SQUARED 0.951, read-out: LUCIFERASE INFECTION ASSAY - IC50): > 10 µM
COc1cc(OC)cc(C(=O)Nc2nc3ccc(C)cn3c2C(=O)NC2CCCCC2)c1	1.03 µM	IC50 (HEPG2TOX_HILL_SLOPE 1.81, HEPG2TOX_R_SQUARED 0.745, PBLUC_HILL_SLOPE 12.8, PBLUC_R_SQUARED 0.53, read-out: LUCIFERASE INFECTION ASSAY - IC50): 0.872 µM
CCCCCn1c(SCC(=O)Nc2ccc(C(C)C)cc2)n[nH]c1=O	3.43 µM	IC50 (HEPG2TOX_HILL_SLOPE 1.82, HEPG2TOX_R_SQUARED 0.814, PBLUC_HILL_SLOPE 12.7, PBLUC_R_SQUARED 0.412, read-out: LUCIFERASE INFECTION ASSAY - IC50): 2.89 µM
CC(OC(=O)c1cc([N+](=O)[O-])ccc1N(C)C)C(=O)Nc1ccc(Cl)cn1 (configuration not stated)	1.83 µM	IC50 (HEPG2TOX_HILL_SLOPE 1.79, HEPG2TOX_R_SQUARED 0.979, PBLUC_HILL_SLOPE 1.96, PBLUC_R_SQUARED 0.845, read-out: LUCIFERASE INFECTION ASSAY - IC50): 0.596 µM
CCOc1cccc2cc(C(C)Nc3ncnc4n[nH]cc34)oc12 (configuration not stated)	6.49 µM	IC50 (HEPG2TOX_HILL_SLOPE 1.82, HEPG2TOX_R_SQUARED 0.969, PBLUC_HILL_SLOPE 2.94, PBLUC_R_SQUARED 0.376, read-out: LUCIFERASE INFECTION ASSAY - IC50): 3.07 µM
CCOC(=O)c1c(NC(=O)CSc2ncnc3scc(-c4ccc(OC)cc4)c23)sc2c1CCCC2	> 10 µM	IC50 (HEPG2TOX_HILL_SLOPE 1.83, HEPG2TOX_R_SQUARED 0.223, read-out: LUCIFERASE INFECTION ASSAY - IC50): > 10 µM
CN1C(=O)N(CCCc2ccncc2)C(=O)C12CCN(Cc1cc3ccccc3[nH]1)CC2	> 7.65 µM	IC50 (HEPG2TOX_HILL_SLOPE 1.79, HEPG2TOX_R_SQUARED 0.954, PBLUC_HILL_SLOPE 8.39, PBLUC_R_SQUARED 0.134, read-out: LUCIFERASE INFECTION ASSAY - IC50): 6.78 µM
N#Cc1ccccc1Sc1ccccc1C(=O)OCc1cc(=O)oc2cc(Br)ccc12	> 10 µM	IC50 (HEPG2TOX_HILL_SLOPE 1.78, HEPG2TOX_R_SQUARED 0.958, PBLUC_HILL_SLOPE 3.89, PBLUC_R_SQUARED 0.0824, read-out: LUCIFERASE INFECTION ASSAY - IC50): 9.13 µM
NC(=O)c1c(NC(=O)N2CCC(Cc3ccccc3)CC2)sc2c1CCC2	> 8.6 µM	IC50 (HEPG2TOX_HILL_SLOPE 1.79, HEPG2TOX_R_SQUARED 0.702, PBLUC_HILL_SLOPE 1.44, PBLUC_R_SQUARED 0.101, read-out: LUCIFERASE INFECTION ASSAY - IC50): 3.57 µM
O=C(Nc1nc2ccccc2n1C1CCCCC1)c1ccoc1	4.66 µM	IC50 (HEPG2TOX_HILL_SLOPE 1.84, HEPG2TOX_R_SQUARED 0.834, PBLUC_HILL_SLOPE 10.1, PBLUC_R_SQUARED 0.2, read-out: LUCIFERASE INFECTION ASSAY - IC50): 3.75 µM
COc1ccc(-c2cn(CC(=O)c3ccccc3)c3[n+]2-c2ccccc2CC3)cc1	> 10 µM	IC50 (HEPG2TOX_HILL_SLOPE 1.82, HEPG2TOX_R_SQUARED 0.932, PBLUC_HILL_SLOPE 2.71, PBLUC_R_SQUARED 0.363, read-out: LUCIFERASE INFECTION ASSAY - IC50): 4.75 µM
COc1ccc(-c2nonc2NC(=O)c2oc3cc(C)ccc3c2C)cc1OC	3.11 µM	IC50 (HEPG2TOX_HILL_SLOPE 1.8, HEPG2TOX_R_SQUARED 0.881, PBLUC_HILL_SLOPE 18.6, PBLUC_R_SQUARED 0.206, read-out: LUCIFERASE INFECTION ASSAY - IC50): 2.77 µM
CCOC(=O)c1ccc(NC2CCCCC2)c(/N=C/c2cc(Cl)cc(Cl)c2O)c1	2.39 µM	IC50 (HEPG2TOX_HILL_SLOPE 1.82, HEPG2TOX_R_SQUARED 0.941, PBLUC_HILL_SLOPE 4.39, PBLUC_R_SQUARED 0.446, read-out: LUCIFERASE INFECTION ASSAY - IC50): 1.45 µM
CCN(CC)c1ccc(Nc2nc(-c3c(C)nc4ncccn34)cs2)cc1	6.56 µM	IC50 (HEPG2TOX_HILL_SLOPE 1.79, HEPG2TOX_R_SQUARED 0.957, PBLUC_HILL_SLOPE 3.27, PBLUC_R_SQUARED 0.301, read-out: LUCIFERASE INFECTION ASSAY - IC50): 3.35 µM
